Tests used:
C57BL/6J mice [1] = assay: TUNEL and CD31 co-staining of quadriceps capillaries; type: in vivo, mouse; conditions: aged quadriceps tissue, four weeks treatment; untreated 42%
Experimental: (§1) Freshly isolated whole quadriceps and gastrocnemius muscle samples were mounted in OCT compound (Tissue-Tek), placed in an isopentane bath and slowly cooled in liquid nitrogen. Transverse sections at 20 μm-thickness were sectioned on a cryostat (Leica). The sections were fixed in pre-cooled acetone (−20° C.) for 10 min and washed with PBS. Slides were then blocked in normal goat serum and 5% Blocking Reagent (PerkinElmer) in PBST (PBS with 0.1% Triton-X) for 1 h at room temperature, and then incubated with anti-CD31 (ab56299, Abcam) and anti-Laminin (L9393, Sigma), GFP (ab6556, Abcam) or SIRT1 (HPA006295, Sigma) antibodies diluted in blocking buffer overnight at 4° C. Slides were washed with PBST and then incubated with anti-rat Alexa Fluor 488-conjugated (Life Technologies) and anti-rabbit Alexa Fluor 594-conjugated (Life Technologies) antibodies diluted to 1:500 in blocking buffer for 2 h at room temperature. Slides were washed again with PBST and mounted with Fluoroshield with DAPI mounting medium (Sigma). Images were acquired using a confocal fluorescence microscope (Nikon A1). Quantification of capillaries and capillary density were performed using ImageJ software. TUNEL staining was performed in muscle sections using in situ BrdU-Red DNA fragmentation (TUNEL) assay kit (Abcam) as per manufacturer's protocol.

HUVECs [2] = assay: Cell apoptosis assay, HUVECs exposed to H2O2; type: cell-based, human
Experimental: HUVECs were treated with PBS (vehicle), NaHS (100 μM), NMN (500 μM) or NMN+NaHS for 6 h, followed by exposure to H2O2 (600 μM) for another 4 h. After treatments, the number of apoptotic cells was determined using Annexin V-FITC apoptosis detection kit (eBioscience) as per manufacturer's instructions. Briefly, cells were collected by trypsinization and centrifugation at 1500 rpm for 5 minutes, followed by washing cell pellet twice with cold PBS and resuspending cell pellet in 1× Annexin-binding buffer. Then, 5 μL of Annexin-V FITC was added to 195 μL of cell suspension and incubated at room temperature for 15 min in the dark. After the incubation, cells were centrifuged, resuspended in 195 μL of 1× Annexin-binding buffer and then 5 μL of propidium iodide working solution was added. After mixing gently, the fluorescence intensity was detected with a flow cytometry (FACSCanto II Analyzer, BD Biosciences) at emission at 530 nm and 575 nm and excitation at 488 nm. […]

C57BL/6J mice [3] = assay: Treadmill exercise training with or without NMN, muscle capillaries; type: in vivo, mouse
Experimental: as §1, with “Mice were acclimatized to the treadmill system for 3 days prior to the start of exercise training by running at 10 m/min for 20 min. The animals that were successfully acclimatized were then subjected to running at 15-20 m/min at 5° inclination for 30 minutes once daily for one month. Freshly” for “Freshly”, “(-20°” for “(−20°”, “Slides were then blocked in normal goat serum and 5% Blocking Reagent (PerkinElmer) in PBST (PBS with 0.1% Triton-X) for 1 h at room temperature, and then incubated with anti-CD31 (ab56299, Abcam) and anti-Laminin (L9393, Sigma), GFP (ab6556, Abcam) or SIRT1 (HPA006295, Sigma) antibodies diluted in blocking buffer overnight at 4° C.” left out

SIRT1 = SIRT1 protein levels in HUVECs (Western blot); type: cell-based, human; conditions: NaHS 0.1 mM and/or NMN 0.5 mM
Experimental: SDS-PAGE and Western blot analysis were performed according to standard procedures and detected with the ECL detection kit (Bio-rad, Australia). For Western blot analysis antibodies directed against SIRT1 (Sigma), SIRT3 (CST), SIRT6 (SantaCruz), eNOS (Cell Signaling Technology or CST), cleaved Notch1 (CST), total OXPHOS cocktail (Abcam), PGC-1α (Millipore), VEGF (Abcam), VEGFR2 (Abcam), phospho-VEGFR2 (Millipore), Actin (Cell Signaling Technology), Tubulin (Sigma), 14-3-3 (Cell Signaling Technology), GAPDH (SantaCruz) were used. Quantification of band intensities by densitometry was carried out using ImageJ software.

HUVECs [4] = assay: Wound scratch assay, HUVECs; type: cell-based, human; conditions: Scr or SIRT1 siRNA HUVECs, H2O2 150 μM 1 h, NaHS 100 μM and/or NMN 500 μM, 6 h
Experimental: ECs were cultured until forming a confluent monolayer and a scratch was made using a 200 μL pipette tip. Then the cells were allowed to migrate+/−NaHS (0.1 mM) and +/−NMN (0.5 mM) in EGM-2 medium for 6 hrs. Images were taken at the same location using a brightfield inverted microscope (Olympus 2467) every 2 h. The area of gap closure was calculated using ImageJ software. In some experiments, HUVECs were transduced with Scr or SIRT1 siRNA and cultured until forming a confluent monolayer. The cells were exposed to H2O2 (150 μM) for 1 h and a scratch was made using a 200 μL pipette tip. Then the cells were allowed to migrate with PBS (vehicle), NaHS (100 μM) and/or NMN (500 μM) in EGM-2 medium for 6 h. Images were taken at the same location using a brightfield inverted microscope (Olympus 2467) every 2 h. The area of gap closure was calculated using ImageJ software.

[5] = test system: MLECs from WT and ESKO mice; assay: Spheroid sprouting assay, MLECs; type: cell-based, mouse; conditions: WT versus ESKO MLECs, C2C12 CM, NMN 0.5 mM
Experimental: ECs spheroids were generated as described previously (Korff and Augustin, 1998, J Cell Biol 143, 1341-1352). ECs (1000 cells per spheroid) were suspended in EGM-2 medium containing 20% methocel (viscosity: 4000 cps, Sigma) and seeded in non-adherent round-bottom 96-well plates (Sigma). Under these conditions all suspended cells contributed to the formation of a single spheroid. The spheroids were harvested after 24 h embedded into collagen gels. Sprouting was initiated by adding C2C12 CM or EBM-2 medium containing VEGF (50 ng/mL). NMN (0.5 mM), NaHS (0.1 mM), DAPT (20 μM, Cayman Chemical) or SU5416 (10 μM, Sigma) were added to the media wherever mentioned. Angiogenic activity was quantified by measuring the sprout length that had grown out of each spheroid analyzing 8-10 spheroids per group.

Question: How did the “number of capillaries with apoptotic cells” value (C57BL/6J mice [1]) turn out when `NC(=O)c1ccc[n+]([C@@H]2O[C@H](COP(=O)([O-])O)[C@@H](O)[C@H]2O)c1` [NMN, nicotinamide mononucleotide] was run?
Answer: The value was 17%.

Question: What about the “percentage of cells undergoing early apoptosis” value (HUVECs [2]; NMN 500 μM 6 h, then H2O2 600 μM 4 h) of the same compound?
Answer: Its value is “reduced the percentage of cells undergoing early apoptosis”.

Question: What about the “reduction of apoptosis in response to H2O2” value (HUVECs [2]; NaHS 0.1 mM and/or NMN 0.5 mM 6 hrs, then H2O2 600 μM 4 hrs) of the same compound?
Answer: The value was 13%.

Question: And the “more capillaries in gastrocnemii than sedentary mice” value (C57BL/6J mice [3]; exercised and NMN-treated mice)?
Answer: Its value is 70%.

Question: What about the “increase in vascular density and exercise capacity in conjunction with exercise versus without exercise” value (C57BL/6J mice [3]; mice (summary statement)) of the same compound?
Answer: Its value is “greater”.

Question: And the “capillary density or exercise capacity” value (C57BL/6J mice [3]; young mice kept sedentary, NMN 400 mg/kg/day)?
Answer: Its value is “did not increase”.

Question: What about the “increase in capillary density” value (C57BL/6J mice [3]; young mice, one month endurance training plus NMN 400 mg/kg/day, versus sedentary) of the same compound?
Answer: Its value is 3.2 fold.

Question: And the SIRT1 protein levels (SIRT1)?
Answer: The SIRT1 protein levels was “increased SIRT1 protein levels”.

Question: What about the “cell migration (percentage of closed gaps)” value (HUVECs [4]) of the same compound?
Answer: Its value is “had no effect”.

Question: What about the “ability of NMN to stimulate spheroid sprouting, dependence on SIRT1” value [5] of the same compound?
Answer: Its value is “SIRT1-dependent”.

Source: patent US12616713B2, “Methods for enhancing vascular density” (priority 2016, dated 2026)
